Measured values: article PMC7391767, “Molecular mechanisms underlying menthol binding and activation of TRPM8 ion channel” (Nature Communications, 2020)
Several values for one entry are separate records, joined by “and”; a condition that tells them apart may be missing. Identical values can stand only once.

Assays:
Type in all cases: cell-based
Set-up in all cases: Shifts in ANAP emission, Ave: unit: nm
ANAP-incorporated TRPM8 [1] = target: T1, ANAP-incorporated TRPM8 (Mus musculus, UniProt Q8R4D5, S824X)
T1 construct: expressed in transfected cells; host or cells: HEK293 cells, co-transfected with the pANAP vector
Method: (§1) As fluorescence emission peak of ANAP shifts to a longer wavelength in more hydrophilic environment, we measured the shift in ANAP emission peak to report conformational changes. Fluorescence properties of ANAP may also be affected by other factors such as temperature and pH[31], so we performed our ANAP experiments always at room temperature (22 ± 1°C). To control for changes in solution pH, we added 3 mM HEPES in ANAP imaging solution to buffer the pH at 7.2. We genetically integrated ANAP into a specific site on TRPM8 with special tRNA and synthetase encoded by pANAP vector (Fig. 5d).
(§2) L-ANAP methyl ester was purchased from AsisChem. pANAP vector was purchased from Addgene. ANAP was incorporated into TRPM8 by introducing a TAG amber stop codon mutation as previously reported. Briefly, after co-transfection of both TRPM8 and pANAP vectors, ANAP was directly added to the culture medium to the final concentration of 20 µM. After 1–2 days, ANAP-containing culture medium was completely changed. Cells were further cultured in ANAP-free medium overnight before experiments.
(§3) ANAP fluorescence was excited by the Ar laser with a 375/28 excitation filter, a T400lp dichroic mirror, and a 435LP emission filter on an inverted fluorescence microscope (Nikon TE2000-U) using a ×40 oil-immersion objective (NA 1.3). Emission spectrum of ANAP was imaged with an Acton SpectraPro 2150i spectrograph in conjunction with an optiMOS CCD camera (Qimaging, USA). We determined the ANAP emission peak value by fitting the emission spectrum with a skewed Gauss distribution in Igor Pro version 6.1 (WaveMatrix), and then the difference in emission peak values measured in the absence and presence of menthol was reported as the shift of ANAP emission.

ANAP-incorporated TRPM8 [2] = target: T2, ANAP-incorporated TRPM8 (Mus musculus, UniProt Q8R4D5, Y924X); settings: ANAP incorporation site Y924
T2 construct: expressed in transfected cells; host or cells: HEK293 cells, co-transfected with the pANAP vector
Method: as §1, §2, §3

ANAP-incorporated TRPM8 [3] = target: T3, ANAP-incorporated TRPM8 (Mus musculus, UniProt Q8R4D5, P734X); settings: ANAP incorporation site P734; average shift, menthol activated vs resting state
T3 construct: expressed in transfected cells; host or cells: HEK293 cells, co-transfected with the pANAP vector
Method: as §1, §2, §3

ANAP-incorporated TRPM8 [4] = target: T4, ANAP-incorporated TRPM8 (Mus musculus, UniProt Q8R4D5, L774X)
T4 construct: expressed in transfected cells; host or cells: HEK293 cells, co-transfected with the pANAP vector
Method: as §1, §2, §3

ANAP-incorporated TRPM8 [5] = target: T5, ANAP-incorporated TRPM8 (Mus musculus, UniProt Q8R4D5, Y999X); settings: ANAP incorporation site Y999; average shift, menthol activated vs resting state
T5 construct: expressed in transfected cells; host or cells: HEK293 cells, co-transfected with the pANAP vector
Method: as §1, §2, §3

ANAP-incorporated TRPM8 [6] = target: T6, ANAP-incorporated TRPM8 (Mus musculus, UniProt Q8R4D5, N789X); settings: ANAP incorporation site N789; average shift, menthol activated vs resting state
T6 construct: expressed in transfected cells; host or cells: HEK293 cells, co-transfected with the pANAP vector
Method: as §1, §2, §3

ANAP-incorporated TRPM8 [7] = target: T7, ANAP-incorporated TRPM8 (Mus musculus, UniProt Q8R4D5, W898X); settings: ANAP incorporation site W898
T7 construct: expressed in transfected cells; host or cells: HEK293 cells, co-transfected with the pANAP vector
Method: as §1, §2, §3

ANAP-incorporated TRPM8 [8] = target: T8, ANAP-incorporated TRPM8 (Mus musculus, UniProt Q8R4D5, S823X); settings: ANAP incorporation site S823
T8 construct: expressed in transfected cells; host or cells: HEK293 cells, co-transfected with the pANAP vector
Method: as §1, §2, §3

ANAP-incorporated TRPM8 [9] = target: T9, ANAP-incorporated TRPM8 (Mus musculus, UniProt Q8R4D5, C1006X); settings: ANAP incorporation site C1006; average shift, menthol activated vs resting state
T9 construct: expressed in transfected cells; host or cells: HEK293 cells, co-transfected with the pANAP vector
Method: as §1, §2, §3

ANAP-incorporated TRPM8 [10] = target: T10, ANAP-incorporated TRPM8 (Mus musculus, UniProt Q8R4D5, V876X); settings: ANAP incorporation site V876
T10 construct: expressed in transfected cells; host or cells: HEK293 cells, co-transfected with the pANAP vector
Method: as §1, §2, §3

ANAP-incorporated TRPM8 [11] = target: T11, ANAP-incorporated TRPM8 (Mus musculus, UniProt Q8R4D5, I962X); settings: ANAP incorporation site I962, menthol activated vs resting state
T11 construct: expressed in transfected cells; host or cells: HEK293 cells, co-transfected with the pANAP vector
Method: as §1, §2, §3

ANAP-incorporated TRPM8 [12] = target: T12, ANAP-incorporated TRPM8 (Mus musculus, UniProt Q8R4D5, W896X); settings: ANAP incorporation site W896
T12 construct: expressed in transfected cells; host or cells: HEK293 cells, co-transfected with the pANAP vector
Method: as §1, §2, §3

ANAP-incorporated TRPM8 [13] = target: T13, ANAP-incorporated TRPM8 (Mus musculus, UniProt Q8R4D5, P958X)
T13 construct: expressed in transfected cells; host or cells: HEK293 cells, co-transfected with the pANAP vector
Method: as §1, §2, §3

ANAP-incorporated TRPM8 [14] = target: T14, ANAP-incorporated TRPM8 (Mus musculus, UniProt Q8R4D5, N821X); settings: ANAP incorporation site N821
T14 construct: expressed in transfected cells; host or cells: HEK293 cells, co-transfected with the pANAP vector
Method: as §1, §2, §3

ANAP-incorporated TRPM8 [15] = target: T15, ANAP-incorporated TRPM8 (Mus musculus, UniProt Q8R4D5, T922X)
T15 construct: expressed in transfected cells; host or cells: HEK293 cells, co-transfected with the pANAP vector
Method: as §1, §2, §3

ANAP-incorporated TRPM8 [16] = target: T16, ANAP-incorporated TRPM8 (Mus musculus, UniProt Q8R4D5, L943X); settings: ANAP incorporation site L943
T16 construct: expressed in transfected cells; host or cells: HEK293 cells, co-transfected with the pANAP vector
Method: as §1, §2, §3

[17] = average shift, menthol activated vs resting state

With `CC(C)[C@@H]1CC[C@@H](C)C[C@H]1O` [menthol, (−)-menthol] the “Shifts in ANAP emission, Ave” value (ANAP-incorporated TRPM8 [1]; ANAP at S824) was 2.89, the Shifts_ave (ANAP-incorporated TRPM8 [1]; ANAP incorporation site S824, average shift, menthol activated vs resting state) was 2.90 nm and the “Emission Peak at menthol activated state” value (ANAP-incorporated TRPM8 [1]; ANAP incorporation site S824, single measurement) was 488.12 nm and 482.56 nm and 490.74 nm. For the same compound, the Shifts_ave (ANAP-incorporated TRPM8 [2]; [17]) was -0.72 nm, the “Emission Peak at menthol activated state” value (ANAP-incorporated TRPM8 [2]; single measurement) was 483.26 nm and 481.78 nm and 474.51 nm and 486.54 nm and the Shifts_ave (ANAP-incorporated TRPM8 [3]) was 1.477 nm. For the same compound, the “Shifts in ANAP emission, Ave” value (ANAP-incorporated TRPM8 [4]; ANAP at L774) was 2.36, the Shifts_ave (ANAP-incorporated TRPM8 [4]; ANAP incorporation site L774, average shift, menthol activated vs resting state) was 2.3625 nm and the “Emission Peak at menthol activated state” value (ANAP-incorporated TRPM8 [4]; ANAP incorporation site L774, single measurement) was 484.17 nm and 483.39 nm and 483.98 nm and 484.46 nm and 486.95 nm and 482.2 nm and 480.79 nm. It also gave a Shifts_ave (ANAP-incorporated TRPM8 [5]) of 0.79 nm, a Shifts_ave (ANAP-incorporated TRPM8 [6]) of 0.79 nm and a Shifts_ave (ANAP-incorporated TRPM8 [7]; [17]) of -1.33 nm. The “Emission Peak at menthol activated state” value (ANAP-incorporated TRPM8 [7]; single measurement) was 483.12 nm and 481.69 nm and 486.71 nm and 481.28 nm, the Shifts_ave (ANAP-incorporated TRPM8 [8]; [17]) was 0.97 nm and the “Emission Peak at menthol activated state” value (ANAP-incorporated TRPM8 [8]; single measurement) was 488.83 nm and 484.77 nm and 484.58 nm and 485.28 nm. The Shifts_ave (ANAP-incorporated TRPM8 [9]) was 1.09 nm, the Shifts_ave (ANAP-incorporated TRPM8 [10]; [17]) was 0.71 nm and the “Emission Peak at menthol activated state” value (ANAP-incorporated TRPM8 [10]; single measurement) was 481.62 nm and 479.21 nm and 478.64 nm and 484.51 nm and 491.43 nm. The Shifts_ave (ANAP-incorporated TRPM8 [11]; average shift) was 1.07 nm, the Shifts in emission (ANAP-incorporated TRPM8 [11]; single measurement) was 1.34 nm and 1.4 nm and 0.73 nm and 0.79 nm and the Shifts_ave (ANAP-incorporated TRPM8 [12]; [17]) was -1.22 nm. The “Emission Peak at menthol activated state” value (ANAP-incorporated TRPM8 [12]; single measurement) was 474.04 nm and 481.17 nm and 479.96 nm and 475.43 nm, the “Shifts in ANAP emission, Ave” value (ANAP-incorporated TRPM8 [13]; ANAP at P958) was 2.76 and the Shifts_ave (ANAP-incorporated TRPM8 [13]; ANAP incorporation site P958, average shift, menthol activated vs resting state) was 2.32 nm. For the same compound, the Shifts in emission (ANAP-incorporated TRPM8 [13]; ANAP incorporation site P958, menthol activated vs resting state, single measurement) was 2.11 nm and 2.76 nm and 2.75 nm and 1.64 nm, the Shifts_ave (ANAP-incorporated TRPM8 [14]; [17]) was 0.50 nm and the “Emission Peak at menthol activated state” value (ANAP-incorporated TRPM8 [14]; single measurement) was 493.6 nm. For the same compound, the “Shifts in ANAP emission, Ave” value (ANAP-incorporated TRPM8 [15]; ANAP at T922) was -2.55, the Shifts_ave (ANAP-incorporated TRPM8 [15]; ANAP incorporation site T922, average shift, menthol activated vs resting state) was -2.55 nm and the “Emission Peak at menthol activated state” value (ANAP-incorporated TRPM8 [15]; ANAP incorporation site T922, single measurement) was 473.38 nm and 482.56 nm and 468.55 nm and 478.75 nm and 477.12 nm. The Shifts_ave (ANAP-incorporated TRPM8 [16]; [17]) was -0.71 nm and the “Emission Peak at menthol activated state” value (ANAP-incorporated TRPM8 [16]; single measurement) was 476.85 nm and 475.15 nm and 483.93 nm and 482.35 nm and 475.81 nm and 479.5 nm.
